Test results as given in PMC3183052, “Immunoprotectivity of HLA-A2 CTL Peptides Derived from Respiratory Syncytial Virus Fusion Protein in HLA-A2 Transgenic Mouse” (PLoS ONE, 2011).

What was measured:
HLA-A*0201 = biological target: T1, HLA-A*0201 (Homo sapiens, UniProt P04439, D140Y/D185E/D98H/E176V/E277Q/G131W/G231S/I119V/I121R/I166T/I218V/L300P/L318F/N151K/N90K/P208A/P217A/Q86G/Q94H/R138H/R169H/T345S); assay: T2 cell-stabilization assay (T2-binding); settings: for T2-binding Ratio of MFI: T2 cells 5×10^5, peptide 50 µg/mL + β2-microglobulin 5 µg/mL, 28°C 16–18 h, then brefeldin A 10 µg/mL 37°C 3 h, FITC anti-HLA-A2, flow cytometry, MFI relative to negative control HCV C55-74 (set as 1)
T1 construct: Human T2 cells (purchased from the American Type Culture Collection, ATCC) (ATCC No. CRL-1992) expressing the HLA-A*0201 gene; endogenous in cells; host or cells: human T2 cells (ATCC CRL-1992)
Method: T2 cells (5×10^5) cultured in 96-well U-bottom plates were incubated with the individual 9-mer synthetic peptides (50 µg/mL) and β2-microglobulin (5 µg/mL; Sigma-Aldrich) at 28°C for 16–18 hours. Subsequently, brefeldin A (10 µg/mL) was added and the cells were incubated at 37°C for another 3 hours, then washed and stained with fluorescence isothiocyanate (FITC)-conjugated mouse anti-human HLA-A2 antibody (SeroTec). Peptide-loaded T2 cells were acquired and analyzed on the FACScan flow cytometer using CellQuest software (Becton Dickinson). GLC-9 peptide was used as positive control (PC). The mean fluorescence intensity (MFI) represents the binding affinity of each peptide compared to MFI (set as MFI = 1) obtained from negative control (NC), which is T2 cells loaded with HCV peptide C55-74.
Twenty-five 9-mer synthetic peptides derived from the RSV F glycoprotein sequence presumed to encompass HLA-A*0201 binding motifs were synthesized (Table 1). Each was tested for its ability to bind HLA-A*0201 molecules by T2 cell-based binding assay (data not shown). The relative mean fluorescence intensity (MFI) obtained from the positive control (PC) peptide derived from Epstein-Barr virus capsid protein (GLC-9, a previously defined HLA-A*0201-restricted CTL epitope) was twofold (MFI = 1.96) compared to the baseline MFI = 1 obtained from the negative control (NC) treated with an unrelated peptide HCV C55-74 (a C57BL/6-specific CD4 epitope). […] The remaining peptides had no detectable binding to the HLA-A*0201 molecules. Apparently, the different MFIs generated by binding of RSV F-derived peptides to HLA-A*0201 reflects on the binding specificity of different peptides to a given HLA molecule.

[1] = tested on: splenocytes from HLA-A*0201 transgenic C57BL/6 mice; assay: IFN-γ ELISPOT of splenocytes restimulated with peptide; format: cell-based, mouse; settings: for IFN-γ ELISPOT, RSV: splenocytes of HLA-Tg B6 mice primed and boosted i.n. with 10^4 pfu RSV-B1; for IFN-γ ELISPOT, RSV / IFN-γ ELISPOT, rAd-F0: restimulated with 2 µg peptide, representative of two experiments, five mice per group; for IFN-γ ELISPOT, rAd-F0: splenocytes of HLA-Tg B6 mice primed and boosted i.n. with 10^7 pfu rAd-F0; for IFN-γ level in restimulated splenocytes (ELISPOT, text grading): splenocytes of rAd-F0- or RSV B1-primed and boosted HLA-Tg B6 mice, high = over 100 spots, moderate = over 50 spots
Method: (§1) To screen the immunodominance of epitopic peptide in the induction of RSV-F specific Th1/Th2 expression, HLA-A*0201 transgenic C57BL/6 mice were anesthetized with isoflurane and immunized with 1×10^7 pfu/50 µL of rAd-F0 or rAd-LacZ or 1×10^4 live RSV B1 via the intranasal (i.n.) route. Twenty days later, the mice were given booster immunization i.n. with the same dose. After 10 days of boost, mice were sacrificed and splenocytes were isolated for the cytokine ELISPOT assay. For peptide-based vaccination, transgenic mice were immunized subcutaneously (s.c.) with 50 µg of the individual synthetic peptides emulsified in 25 µL of incomplete Freund's adjuvant (IFA) (Sigma-Aldrich) and then boosted after 10 days s.c. with the same dose of the respective peptides mixed with IFA. Mice were sacrificed 7 days after the booster and splenocytes were isolated for in vitro peptide-restimulation. For challenge studies, 10^7 pfu of live RSV-B1 was administered i.n. seven days after the booster immunization with peptide vaccines. Mice were sacrificed on day 4 post-challenge and the lung tissues were collected and subjected to further analysis by flow cytometry, ELISA, CTL assay and immunohistochemistry. Mice body weight was monitored daily.
(§2) […] RBC-free splenocyte suspensions prepared from the individual mice were seeded in individual wells of 96-well filtration plates (Millipore) precoated with capturing monoclonal antibodies for murine IL-2, IL-4 or IFN-γ (0.5 µg/ well) (eBioscience) and blocked with conditioned medium (CM) for 1 hour at room temperature. The splenocytes were added with the individual RSV F 9-mer synthetic peptides (2 µg each) or GLC-9 dissolved in CM (100 µL). The splenocytes added with Con A (10 µg/mL) were used as positive control. Unstimulated splenocytes were used as negative control. The plates were kept in a 37°C incubator equilibrated with 5% CO2 for 48 hours. The individual wells of the ELISPOT plates were washed three times with washing buffer (0.05% tween20 in PBS, PBS-T), and then 0.2 µg of the corresponding biotinylated detection monoclonal antibodies specific for IL-2, IL-4 and IFN-γ were added to detect the respective cytokines. After 2 hours of incubation at room temperature, the plates were washed and 100 µl of streptavidin-alkaline phosphatase (1∶ 250 dilution) was added to the individual wells, and the plates were incubated at room temperature for 45 minutes. Finally, the plates were washed four times with the wash buffer, and 100 µl of AEC (3-amine-9-ethylcarbazole, Sigma-Aldrich) substrate was added to each well and allowed to react for 30 minutes at room temperature in the dark. The plates were then washed with water, air-dried overnight, and the spots per well were scored using the immunospot counting reader (C.T.L. IMMUNOSPOT, CELLULAR TECHNOLOGY LTD). Results were expressed as the number of cytokine-secreting cells per 5×10^5 splenocytes seeded in the initial culture.
(§3) Figure 1 Induction of IFN-γ and IL-2 in splenocytes from RSV F peptide immunized HLA-A*0201 transgenic mice upon secondary recall. Splenocytes harvested on day 30 from HLA-A-Tg B6 mice primed and boosted at 20 days interval intranasally with 10^7 pfu of rAd-F0 (□) or 10^4 pfu of RSV-B1 (▪)were restimulated with 2 µg of the individual RSV F peptide or 10 µg/ml Con A for 5 days in the presence of murine IL-2 . After stimulation, 5×10^5 splenocytes were seeded to anti-IFN-γ (A) or anti-IL-2 (B) capture antibody coated ELISPOT plates for 2 days for ELISPOT assay as described in Materials and Methods. Cytokine-positive immunospots were developed and the results are expressed as the number of immunospots +/−2 standard deviations for each experimental group. Data is representative of results derived from two independent experiments, each with five mice per group.

[2] = tested on: splenocytes from HLA-A*0201 transgenic C57BL/6 mice; assay: IL-2 ELISPOT of splenocytes restimulated with peptide; format: cell-based, mouse; settings: for IL-2 ELISPOT, RSV: splenocytes of HLA-Tg B6 mice primed and boosted i.n. with 10^4 pfu RSV-B1; for IL-2 ELISPOT, RSV / IL-2 ELISPOT, rAd-F0: restimulated with 2 µg peptide, representative of two experiments, five mice per group; for IL-2 ELISPOT, rAd-F0: splenocytes of HLA-Tg B6 mice primed and boosted i.n. with 10^7 pfu rAd-F0
Method: as §1, §2, §3

splenocytic CD4+ T cells = assay: CFSE proliferation of CD4+ T cells after in vitro peptide restimulation; format: cell-based, mouse; settings: mice immunized s.c. twice with 50 µg peptide in IFA; splenocytes restimulated with 10 µg/mL peptide for 8 days
Method: (§4) To screen the immunodominance of epitopic peptide in the induction of RSV-F specific Th1/Th2 expression, HLA-A*0201 transgenic C57BL/6 mice were anesthetized with isoflurane and immunized with 1×10^7 pfu/50 µL of rAd-F0 or rAd-LacZ or 1×10^4 live RSV B1 via the intranasal (i.n.) route. Twenty days later, the mice were given booster immunization i.n. with the same dose. After 10 days of boost, mice were sacrificed and splenocytes were isolated for the cytokine ELISPOT assay. […] Mice body weight was monitored daily.
(§5) The splenocytes were isolated, labeled with 5-(6)-carboxyfluorescein diacetate succinimidyl ester (CFSE) (Sigma-Aldrich) and stimulated in vitro with 10 µg/mL of the synthetic peptides for 4 or 8 days. Proliferation of splenocytic CD4^+ and CD8^+ T cells was analyzed by flow cytometry (BD FACSCalibur) using PE-Cy5-labeled specific antibody against CD4 (eBioscience) or CD8 (eBioscience), respectively. Cell division index (CDI), a ratio of CFSE-diluted CD4^+ or CD8^+ T cells stimulated by peptide to CFSE-diluted unstimulated CD4^+ or CD8^+ T cells, was calculated as shown below; [drawing 1] […]
(§6) Figure 2 Epitope-specific CD4^+ and CD8^+ T-cell activation in peptide-immunized HLA-A*0201 transgenic mice. […] Proliferation of CD4^+ (A) or CD8^+ (B) lymphocytes in response to the different CD8 epitopes was analyzed by flow cytometry using anti-CD4 or CD8 antibodies conjugated with PE-Cy5. […]

splenocytic CD8+ T cells = assay: CFSE proliferation of CD8+ T cells after in vitro peptide restimulation; format: cell-based, mouse; settings: mice immunized s.c. twice with 50 µg peptide in IFA; splenocytes restimulated with 10 µg/mL peptide for 8 days
Method: as §4, §5, §6

| Sequence | T2-binding Ratio of MFI (HLA-A*0201) | IFN-γ ELISPOT, RSV [1] | IFN-γ ELISPOT, rAd-F0 [1] | IL-2 ELISPOT, RSV [2] | IL-2 ELISPOT, rAd-F0 [2] | proliferation of CD4+ T cells (cell division index) (splenocytic CD4+ T cells) | proliferation of CD8+ T cells (cell division index) (splenocytic CD8+ T cells) | IFN-γ level in restimulated splenocytes (ELISPOT, text grading) [1] | binding affinity, MFI higher than the baseline (HLA-A*0201; T2 cell-based binding assay, baseline = negative control HCV C55-74, called modest binding affinity) [%] | IL-2 level in restimulated splenocytes (ELISPOT, text grading) ([2]; splenocytes of rAd-F0- or RSV B1-primed and boosted HLA-Tg B6 mice, high = over 100 spots, moderate = over 50 spots) |
| --- | --- | --- | --- | --- | --- | --- | --- | --- | --- | --- |
| KIMTSKTDV [peptide 17, HLA-A*0201-restricted 9-mer synthetic peptide from F protein of RSV-B1 strain] | 0.95 | 2.5 cytokine-secreting cells per 5×10^5 splenocytes | 24.5 cytokine-secreting cells per 5×10^5 splenocytes | 6.5 cytokine-secreting cells per 5×10^5 splenocytes | 24.5 cytokine-secreting cells per 5×10^5 splenocytes | insignificant proliferation | could not induce proliferation | – | – | – |
| LLWVLLLWV [peptide 2, HLA-A*0201-restricted 9-mer synthetic peptide from F protein of RSV-B1 strain] | 0.97 | 46.5 cytokine-secreting cells per 5×10^5 splenocytes | 46.5 cytokine-secreting cells per 5×10^5 splenocytes | 42 cytokine-secreting cells per 5×10^5 splenocytes | 34.5 cytokine-secreting cells per 5×10^5 splenocytes | – | – | over 50 spots | – | – |
| TLLLWVLLL [peptide 1, HLA-A*0201-restricted 9-mer synthetic peptide from F protein of RSV-B1 strain] | 1.19 | 69.5 cytokine-secreting cells per 5×10^5 splenocytes | 33.5 cytokine-secreting cells per 5×10^5 splenocytes | 39.5 cytokine-secreting cells per 5×10^5 splenocytes | 85.5 cytokine-secreting cells per 5×10^5 splenocytes | – | – | over 50 spots | ~10 | over 50 spots |
